Results: article PMC7177849, “Gut Microbial Catabolites of Tryptophan Are Ligands and Agonists of the Aryl Hydrocarbon Receptor: A Detailed Characterization” (International Journal of Molecular Sciences, 2020)
Several values for one entry are separate records, joined by “and”; a condition that tells them apart may be missing. Equal entries are not always repeated. Where two headings read alike, the source gives them in different places.

What was measured:
[1] = target: T1, AhR (Homo sapiens, UniProt P35869); test: Reporter gene assay in AZ-AHR cells, agonist analyses (luciferase)
T1 sequence (P35869 11-848): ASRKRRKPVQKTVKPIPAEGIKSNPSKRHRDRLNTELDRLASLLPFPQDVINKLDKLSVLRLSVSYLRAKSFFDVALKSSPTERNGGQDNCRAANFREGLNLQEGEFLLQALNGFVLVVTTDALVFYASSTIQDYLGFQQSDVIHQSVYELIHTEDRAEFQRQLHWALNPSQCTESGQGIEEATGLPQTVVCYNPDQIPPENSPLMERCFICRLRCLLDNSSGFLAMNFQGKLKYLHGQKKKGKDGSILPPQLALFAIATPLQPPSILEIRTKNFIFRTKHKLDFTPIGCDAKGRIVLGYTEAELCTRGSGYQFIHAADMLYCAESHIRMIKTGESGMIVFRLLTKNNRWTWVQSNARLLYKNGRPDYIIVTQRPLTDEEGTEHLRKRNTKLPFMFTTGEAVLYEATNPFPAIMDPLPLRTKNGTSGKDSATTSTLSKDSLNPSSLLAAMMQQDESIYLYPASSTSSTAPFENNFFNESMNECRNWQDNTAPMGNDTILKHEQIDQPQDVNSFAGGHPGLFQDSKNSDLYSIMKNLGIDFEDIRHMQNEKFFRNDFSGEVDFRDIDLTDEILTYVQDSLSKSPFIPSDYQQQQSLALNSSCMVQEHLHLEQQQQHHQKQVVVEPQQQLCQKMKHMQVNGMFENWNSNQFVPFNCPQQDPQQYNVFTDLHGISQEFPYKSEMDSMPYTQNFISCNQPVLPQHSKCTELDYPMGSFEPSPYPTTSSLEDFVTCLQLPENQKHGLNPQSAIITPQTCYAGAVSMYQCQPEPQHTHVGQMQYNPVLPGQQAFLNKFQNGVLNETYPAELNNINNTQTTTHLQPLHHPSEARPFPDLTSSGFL
Method: In the first series of experiments, we evaluated the agonistic and antagonistic effects of MICT on the AhR activation. […] The antagonistic effects of MICT were evaluated against typical full agonists of the AhR, comprising TCDD, BaP, and FICZ, which were applied at fixed concentrations corresponding to their EC80.
Following the treatments, we lysed cells, and luciferase activity was measured. Experiments were performed at least in four consecutive cell passages. Incubations were performed in quadruplicates (technical replicates). In agonist analyses, the data from a representative experiment, expressed as a fold induction of luciferase activity over control cells, are shown. In antagonist analyses, the data are a percentage of maximal induction, and they are the mean ± SD.
Then, cells were lysed, and luciferase activity was measured using the Tecan Infinite M200 plate luminometer (Schoeller Instruments, Czech Republic). The experiments were performed in at least four consecutive cell passages, and the treatments were in quadruplicates (technical replicates). The values of half-maximal effective concentration (EC50) for each MICT, and half-maximal inhibitory concentration (IC50—where appropriate) were calculated.
Supplementary Figure 2. Tryptophan effects in culture medium on AhR activity. (A) Time-course of Trp
levels in culture media from hepatic (AZ-AHR), instestinal (LS174T) and skin (HaCaT) cells. Determined by
HPLC. (B) Induction of AhR-dependent luciferase activity in AZ-AHR cells incubated for 24 h with TCDD,
Indole and Trp in Trp/serum-free culture medium. (C) Induction of AhR-dependent luciferase activity in
AZ-AHR cells incubated for 24 h with TCDD and Indole in standard (+Trp/+FBS), serum-free (+Trp/-FBS),
Trp-free (-Trp/+FBS) and Trp/serum-free (-Trp/-FBS) culture medium. […]

[2] = tested on: AhR; set-up: method as in PMID 23973224; settings: mouse H1L1.1c2 reporter cells; cited from earlier work
[3] = tested on: AhR; set-up: method as in PMID 26235394; settings: 100 µM IND, HepG2 cells, 4 h; cited from earlier work
[4] = tested on: CYP1A1 mRNA; set-up: method as in PMID 24563545; settings: cited from earlier work
[5] = tested on: CYP1A1 promoter; test: Chromatin immunoprecipitation (ChIP), binding of the AhR to CYP1A1 promoter in LS180 cells; assay type: cell-based, human; settings: 90 min
Method: Figure 7 MICT elicit the binding of the AhR to CYP1A1 promoter, as determined by the chromatin immunoprecipitation assay (ChIP). LS180 cells were incubated with vehicle, TCDD, and tested compounds, as described in Materials and Methods, and were then subjected to ChIP analysis. Bar graphs show binding of the AhR to CYP1A1 promoter as quantified by RT-PCR. The entire protocol was carried out in three consecutive cell passages. The data are expressed as a fold enrichment to vehicle-treated cells and show the mean ± SD from duplicates (technical replicates). DNA fragments amplified by PCR were resolved on 2% agarose gel (representative record from “exp 2” is shown).
LS180 cells (4 million) were seeded in a 60-mm dish in Dulbecco’s modified Eagle’s medium (D6546; Sigma Aldrich). The following day, the cells were incubated with DMSO (0.1% V/V), TCDD (10 nM), IND (1000 µM), IPY (200 µM), 3MI (200 µM), TA (200 µM), IAC (100 µM), and IAD (200 µM) for 90 min at 37 °C. ChIP assay was performed as we described in detail elsewhere.

[6] = EC50, AZ-AHR cells, 24 h, agonist analyses
[7] = read-out: fold induction of luciferase activity (efficacy)

Compound	EC50 [1, 6]	Efficacy (EMAX) ([1]; Table 1 summary class)	Potency (EC50) ([1]; Table 1 summary class)	further results
Cc1c[nH]c2ccccc12 [3MI, skatole]	103 ± 1.78 µM	medium	low	–
O=Cc1c[nH]c2ccccc12 [IA, indole-3-aldehyde]	62.2 µM and 62 µM	low	low	agonist activity [2]: vigorous agonist activity
O=C(O)/C=C/c1c[nH]c2ccccc12 [IAC, indole-3-acrylate]	42.3 ± 3.32 µM	medium	low	fold induction at 100 µM [1, 7]: 40 to 100
NC(=O)Cc1c[nH]c2ccccc12 [IAD, indole-3-acetamide]	99.9 ± 2.86 µM	high	low	–
OCCc1c[nH]c2ccccc12 [IET, indole-3-ethanol]	98 ± 6.41 µM	medium	low	–
O=C(O)C(O)Cc1c[nH]c2ccccc12 (stereo not shown) [ILA, indole-3-lactate]	82 ± 17.1 µM	low	–	Potency (EC50) [1]: low
c1ccc2[nH]ccc2c1 [IND, indole]	–	–	–	activation of AhR [3]: achieved; induction of CYP1A1 mRNA [3]: achieved; induction of CYP1A1 mRNA ([4]; various human cells, 500–1000 µM IND): moderate induction; Efficacy (EMAX) [1]: high; Potency (EC50) [1]: very low; induced luciferase activity [1]: 500 fold; EC50 ([1]; EC50): ~1500 µM and 1480 µM; fold induction at 10000 µM [1, 7]: 200 to 600
O=C(O)C(=O)Cc1c[nH]c2ccccc12 [IPY, indole-3-pyruvate]	98.5 ± 10.1 µM	high	low	–
NCCc1c[nH]c2ccccc12 [TA, tryptamine]	83.1 ± 12.7 µM	medium	low	CYP1A1 mRNA induction ([4]; 50 µM TA, Caco-2 and cells): induction
Clc1cc2c(cc1Cl)Oc1cc(Cl)c(Cl)cc1O2 [TCDD, 2,3,7,8-tetrachlorodibenzo-p-dioxin, reference compound]	–	–	–	induced luciferase activity ([1]; AZ-AHR cells, 24 h, Trp-free/serum-free medium): 10000 fold; binding of the AhR to the promoter of the CYP1A1 gene [5]: enhanced
